From patent US20110044938A1 (NYCOMED GMBH, priority 2006, published 2011)

What was measured:
[1] = tested on: subclones of RKO colon adenocarcinoma cells (RKOp27 or RKOp21) arrested by Ponasterone A; experiment: Alamar Blue cell viability assay, cell cycle specific mode of action: cells arrested by ectopic p27Kip1 induced by Ponasterone A versus proliferating cells; assay type: cell-based; conditions: Homo sapiens, RKO p27 induced (arrested) cells, 10 μM Ponasterone A, 72 hours, value = class bound given in Table A, read-out: −logIC50 RKO p27 induced (arrested) (converted)
How it was run: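 RKOp27 or RKOp21 cells, 15000/well in DMEM/10% FCS, either arrested by p27Kip1 induced with 10 μM Ponasterone A or proliferating without inducer; compound added after 24 h, 72 h at 37° C. Alamar Blue fluorescence (544/590 nm), viability as % of untreated cells; −log IC50 reported.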

[2] = tested on: RKO (RKOp27) human colon adenocarcinoma cells; experiment: Alamar Blue cell viability assay, anti-proliferative/cytotoxic activity on proliferating RKO subclones; assay type: cell-based; conditions: RKOp27, 72 h, RKO p27 uninduced (proliferating) cells, value = class bound given in Table A, read-out: −logIC50 RKO p27 uninduced (proliferating) (converted)
How it was run: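 RKOp27 subclones (5000 cells/well) were exposed 24 h after seeding to semi-log compound dilutions in DMEM with 10% FCS, in quadruplicate, for 72 h at 37 °C. Viability was read by Alamar Blue fluorescence (544/590 nm) relative to untreated cells (1% DMSO medium). IC50 came from concentration-effect curves and is reported as −log IC50 [mol/l].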

Structure (SMILES) | IC50 [1] [nM] | IC50 [2] [nM]
N#Cc1c(NC(=O)/C=C/c2cccnc2)sc2c1CCC(OC(=O)NC1CCCCC1)C2 (stereo not drawn) [Example 142, Cyclohexyl-carbamic acid 3-cyano-2-((E)-3-pyridin-3-yl-allanoylamino)-4,5,6,7-tetrahydro-benzo[b]thiophen-6-yl ester] | ≥ 100000 | 501 to 2000
N#Cc1c(NC(=O)/C=C/c2cccnc2)sc2c1CCC(COC(=O)N1CC[C@H](O)C1)C2 (stereo partly drawn) [Example 144, (S)-3-Hydroxy-pyrrolidine-1-carboxylic acid 3-cyano-2-((E)-3-pyridin-3-yl-allanoylamino)-4,5,6,7-tetrahydro-benzo[b]thiophen-6-ylmethyl ester] | ≥ 100000 | ≤ 501
N#Cc1c(NC(=O)/C=C/c2cccnc2)sc2c1CCC(COC(=O)N1CC[C@@H](O)C1)C2 (stereo partly drawn) [Example 145, (R)-3-Hydroxy-pyrrolidine-1-carboxylic acid 3-cyano-2-((E)-3-pyridin-3-yl-allanoylamino)-4,5,6,7-tetrahydro-benzo[b]thiophen-6-ylmethyl ester] | ≥ 100000 | ≤ 501
N#Cc1c(NC(=O)/C=C/c2cccnc2)sc2c1CCC(OC(=O)N1CC[C@H](O)C1)C2 (stereo partly drawn) [Example 146, (S)-3-Hydroxy-pyrrolidine-1-carboxylic acid 3-cyano-2-((E)-3-pyridin-3-yl-allanoylamino)-4,5,6,7-tetrahydro-benzo[b]thiophen-6-yl ester] | ≥ 100000 | ≤ 501
N#Cc1c(NC(=O)/C=C/c2cccnc2)sc2c1CCC(OC(=O)N1CC[C@@H](O)C1)C2 (stereo partly drawn) [Example 147, (R)-3-Hydroxy-pyrrolidine-1-carboxylic acid 3-cyano-2-((E)-3-pyridin-3-yl-allanoylamino)-4,5,6,7-tetrahydro-benzo[b]thiophen-6-yl ester] | ≥ 100000 | 501 to 2000
N#Cc1c(NC(=O)/C=C/c2cccnc2)sc2c1CCC(OC(=O)NC1COC1)C2 (stereo not drawn) [Example 148, Oxetan-3-yl-carbamicacid 3-cyano-2-((E)-3-pyridin-3-yl-allanoylamino)-4,5,6,7-tetrahydro-benzo[b]thiophen-6-yl ester] | ≥ 100000 | 501 to 2000
N#Cc1c(NC(=O)/C=C/c2cccnc2)sc2c1CCC(COC(=O)NC1COC1)C2 (stereo not drawn) [Example 149, Oxetan-3-yl-carbamic acid 3-cyano-2-((E)-3-pyridin-3-yl-allanoylamino)-4,5,6,7-tetrahydro-benzo[b]thiophen-6-ylmethyl ester] | ≥ 100000 | 501 to 2000
CCOC(=O)OCC1CCc2c(sc(NC(=O)CCc3ccccc3OCC)c2C#N)C1 (stereo not drawn) [Example 151, Carbonic acid 3-cyano-2-[3-(2-ethoxy-phenyl)-propanoylamino]-4,5,6,7-tetrahydro-benzo[b]thiophen-6-ylmethyl ester ethyl ester] | ≥ 100000 | ≤ 501
CCOC(=O)OC1CCc2c(sc(NC(=O)CCc3ccccc3OCC)c2C#N)C1 (stereo not drawn) [Example 152, Carbonic acid 3-cyano-2-[3-(2-ethoxy-phenyl)-propanoylamino]-4,5,6,7-tetrahydro-benzo[b]thiophen-6-yl ester ethyl ester] | ≥ 100000 | ≤ 501
CCNC(=O)OC1CCc2c(sc(NC(=O)CCc3ccccc3OCC)c2C#N)C1 (stereo not drawn) [Example 153, Ethyl-carbamic acid 3-cyano-2-[3-(2-ethoxy-phenyl)-propanoylamino]-4,5,6,7-tetrahydro-benzo[b]thiophen-6-yl ester] | ≥ 10000 | ≤ 501
CCOc1ccccc1CCC(=O)Nc1sc2c(c1C#N)CCC(OC(=O)OCc1ccccc1)C2 (stereo not drawn) [Example 154, Carbonic acid benzyl ester 3-cyano-2-[3-(2-ethoxy-phenyl)-propanoylamino]-4,5,6,7-tetrahydro-benzo[b]thiophen-6-yl ester] | ≥ 100000 | 501 to 2000
CCOc1ccccc1CCC(=O)Nc1sc2c(c1C#N)CCC(OC(=O)NCc1ccccc1)C2 (stereo not drawn) [Example 155, Benzyl-carbamic acid 3-cyano-2-[3-(2-ethoxy-phenyl)-propanoylamino]-4,5,6,7-tetrahydro-benzo[b]thiophen-6-yl ester] | ≥ 100000 | ≤ 501
CCNC(=O)OCC1CCc2c(sc(NC(=O)CCc3cccnc3)c2C#N)C1 (stereo not drawn) [Example 156, Ethyl-carbamic acid 3-cyano-2-(3-pyridin-3-yl-propanoylamino)-4,5,6,7-tetrahydro-benzo[b]thiophen-6-ylmethyl ester] | ≥ 100000 | 501 to 2000
CCNC(=O)OC[C@H]1CCc2c(sc(NC(=O)CCc3cccnc3)c2C#N)C1 [Example 156a, (S)-Ethyl-carbamic acid 3-cyano-2-(3-pyridin-3-yl-propanoylamino)-4,5,6,7-tetrahydro-benzo[b]thiophen-6-ylmethyl ester] | ≥ 100000 | 501 to 2000
N#Cc1c(NC(=O)CCc2cccnc2)sc2c1CCC(COC(=O)NCc1ccccc1)C2 (stereo not drawn) [Example 157, Benzyl-carbamic acid 3-cyano-2-(3-pyridin-3-yl-propanoylamino)-4,5,6,7-tetrahydro-benzo[b]thiophen-6-ylmethyl ester] | ≥ 100000 | ≤ 501
CCOC(=O)OC1CCc2c(sc(NC(=O)CCc3cccnc3)c2C#N)C1 (stereo not drawn) [Example 158, Carbonic acid 3-cyano-2-(3-pyridin-3-yl-propanoylamino)-4,5,6,7-tetrahydro-benzo[b]thiophen-6-yl ester ethyl ester] | ≥ 100000 | 501 to 2000
CCNC(=O)OCC1CCc2c(sc(NC(=O)CCc3ccccc3OCC)c2C#N)C1 (stereo not drawn) [Example 159, Ethyl-carbamic acid 3-cyano-2-[3-(2-ethoxy-phenyl)-propanoylamino]-4,5,6,7-tetrahydro-benzo[b]thiophen-6-ylmethyl ester] | ≥ 100000 | ≤ 501
CCOc1ccccc1CCC(=O)Nc1sc2c(c1C#N)CCC(COC(=O)NCc1ccccc1)C2 (stereo not drawn) [Example 160, Benzyl-carbamic acid 3-cyano-2-[3-(2-ethoxy-phenyl)-propanoylamino]-4,5,6,7-tetrahydro-benzo[b]thiophen-6-ylmethyl ester] | ≥ 100000 | ≤ 501
N#Cc1c(NC(=O)CCc2cccnc2)sc2c1CCC(OC(=O)NC1CC1)C2 (stereo not drawn) [Example 161, Cyclopropyl-carbamic acid 3-cyano-2-(3-pyridin-3-yl-propanoylamino)-4,5,6,7-tetrahydro-benzo[b]thiophen-6-yl ester] | ≥ 50100 | 501 to 2000
CNC(=O)OCC1CCc2c(sc(NC(=O)CCc3cccnc3)c2C#N)C1 (stereo not drawn) [Example 162, Methyl-carbamic acid 3-cyano-2-(3-pyridin-3-yl-propanoylamino)-4,5,6,7-tetrahydro-benzo[b]thiophen-6-ylmethyl ester] | ≥ 100000 | 501 to 2000
CCOc1ccccc1CCC(=O)Nc1sc2c(c1C#N)CCC(OC(=O)NCCn1ccnc1)C2 (stereo not drawn) [Example 163, (2-Imidazol-1-yl-ethyl)-carbamic acid 3-cyano-2-[3-(2-ethoxy-phenyl)-propanoylamino]-4,5,6,7-tetrahydro-benzo[b]thiophen-6-yl ester] | ≥ 10000 | ≤ 501
CCOc1ccccc1CCC(=O)Nc1sc2c(c1C#N)CCC(COC(=O)NCCn1ccnc1)C2 (stereo not drawn) [Example 164, (2-Imidazol-1-yl-ethyl)-carbamic acid 3-cyano-2-[3-(2-ethoxy-phenyl)-propanoylamino]-4,5,6,7-tetrahydro-benzo[b]thiophen-6-ylmethyl ester] | ≥ 10000 | ≤ 501
CCOc1ccccc1CCC(=O)Nc1sc2c(c1C#N)CCC(OC(=O)NCc1cccnc1)C2 (stereo not drawn) [Example 165, Pyridin-3-ylmethyl-carbamic acid 3-cyano-2-[3-(2-ethoxy-phenyl)-propanoylamino]-4,5,6,7-tetrahydro-benzo[b]thiophen-6-yl ester] | ≥ 100000 | ≤ 501
CCOc1ccccc1CCC(=O)Nc1sc2c(c1C#N)CCC(OC(=O)NCCc1cccnc1)C2 (stereo not drawn) [Example 166, (2-Pyridin-3-yl-ethyl)-carbamic acid 3-cyano-2-[3-(2-ethoxy-phenyl)-propanoylamino]-4,5,6,7-tetrahydro-benzo[b]thiophen-6-yl ester] | ≥ 100000 | ≤ 501
CCOc1ccccc1CCC(=O)Nc1sc2c(c1C#N)CCC(OC(=O)NCc1cncn1C)C2 (stereo not drawn) [Example 167, (3-Methyl-3H-imidazol-4-ylmethyl)-carbamic acid 3-cyano-2-[3-(2-ethoxy-phenyl)-propanoylamino]-4,5,6,7-tetrahydro-benzo[b]thiophen-6-yl ester] | ≥ 10000 | ≤ 501
CCOc1ccccc1CCC(=O)Nc1sc2c(c1C#N)CCC(OC(=O)NCc1cn(C)cn1)C2 (stereo not drawn) [Example 168, (1-Methyl-1H-imidazol-4-ylmethyl)-carbamic acid 3-cyano-2-[3-(2-ethoxy-phenyl)-propanoylamino]-4,5,6,7-tetrahydro-benzo[b]thiophen-6-yl ester] | ≥ 10000 | ≤ 501
CCOc1ccccc1CCC(=O)Nc1sc2c(c1C#N)CCC(OC(=O)NCc1ccnn1C)C2 (stereo not drawn) [Example 169, (2-Methyl-2H-pyrazol-3-ylmethyl)-carbamic acid 3-cyano-2-[3-(2-ethoxy-phenyl)-propanoylamino]-4,5,6,7-tetrahydro-benzo[b]thiophen-6-yl ester] | ≥ 50100 | ≤ 501
